Converted amounts (≈) assume the structure as drawn.
Key:
heparin = assay: Direct interaction of inhibitor compounds with immobilized heparin (pre-incubation versus co-incubation with GBVP); type: binding; conditions: for Inhibition (%) Co-incubation: GBVP co-incubated with compound for 90 min in control wells; for Inhibition (%) Pre-Incubation: compound pre-incubated with immobilized heparin 90 min, washed, then GBVP added
Protocol: Compounds found to be suitable for further development and chemical optimization may be further subjected to a second screening, identifying those that directly bind to heparin. Individual compounds are incubated with immobilized heparin in the absence of CMV envelope glycoprotein B. After washing of the plates to remove all unbound compound, CMV envelope glycoprotein B is added. At this time, in separate wells, CMV envelope glycoprotein B is co-incubated with the test compounds and the standard assay protocol is followed. Test compounds which bind directly and irreversibly to heparin are identified by comparing the results of pre-incubation versus co-incubation experiments.
96-well ELISA plates are coated with Heparin-BSA, then blocked with BSA as described in Example 1. GBVP Hit Compounds, at final concentration 0.1-200 μM, are incubated in the ELISA plate for 90 min, and then washed with incubation buffer. After washing, GBVP is added to the wells pre-incubated with compounds. At the same time, in separate control wells, GBVP is co-incubated with Hit Compounds for 90 min. Following the incubation, GBVP bound to the plate is quantified by antibody conjugated to horse radish peroxidase and OD measurement as described in Example 1.

[1] = tested on: Varicella Zoster Virus (VZV); assay: Cytopathic effect (CPE) inhibition assay on Varicella Zoster Virus in HFF cells; type: cell-based; conditions: Human alphaherpesvirus 3, HFF, 240 h, ten days incubation
Protocol: Cytopathic effect (CPE) inhibition assays were performed on Varicella Zoster Virus (VZV) as follows. Low passage human foreskin fibroblast (HFF) cells were seeded into 96-well tissue culture plates 24 hours prior to use at a cell concentration of 2.5×10^5 cells per ml in 0.1 ml of MEM supplemented with 10% FBS. The cells were then incubated for 24 hours at 37° C. in a C02 incubator. After incubation, the medium was removed and 125 μl of candidate drug in growth medium (MEM with 10% FBS) was added to the first row in triplicate wells, all other wells containing 100 μl of media. The drug in the first row of wells was then diluted serially 1:5 throughout the remaining wells by transferring 25 μl using the Cetus liquid handling machine. After dilution of drug, 100 μl growth medium containing virus (2500 PFU per well) was added to each well, excluding cell control wells, which received 100 μl of growth medium only. The plates were then incubated at 37° C. in a CO2 incubator for ten days. After the incubation period, media was aspirated and the cells stained with a 0.1% crystal violet solution for four hours. The stain was then removed and the plates rinsed using tap water until all excess stain was removed. The plates were allowed to dry for 24 hours and then read on a BioTek plate reader at 620 nm. […]

[2] = Neutral red uptake cytotoxicity assay; conditions: human
[3] = target: T1, CMV envelope glycoprotein B binding to immobilized heparin (Human cytomegalovirus, UniProt P06473); assay: Inhibition of CMV envelope glycoprotein B binding to immobilized heparin by soluble heparin; conditions: soluble heparin 0.2-10 mg/ml, FIG. 2
T1 construct: purchased Research Diagnostics, INC; RDI-RCMVAG-B
From the text: The present invention discloses for the first time the use of CMV envelope glycoprotein B for compound screening and for direct targeting of GAG binding sites. The screening method of the present invention is based on an ELISA assay for CMV envelope glycoprotein B interaction with heparin on 96-well plates, suitable for screening compound collections, newly developed by the inventors of the present invention. The assay measures binding of CMV envelope glycoprotein B to immobilized heparin. The amount of bound CMV envelope glycoprotein B is determined by an ELISA assay using a monoclonal antibody conjugated to horseradish peroxidase. […] Soluble heparin was found according to the present invention to inhibit CMV envelope glycoprotein B binding to immobilized heparin (FIG. 2). This method can be used with other specific GBVPs such as HSV-1 glycoproteins B, C, and D, HHV-7 glycoprotein B, and HCV envelope protein. Additionally, other GAGs are capable of replacing heparin in this kind of assay. […]
Porcine intestinal mucosa heparin conjugated to Bovine Serum Albumin (Heparin-BSA; Sigma Cat. No. H0403) at 5 mg/ml in Phosphate Buffered Saline (PBS; pH 6.5) was added to a 96-well polystyrene ELISA plate (NLNC Cat. No. 442404; 0.1 ml per well) and incubated over night at 4° C. […] The Optical Density (OD) of the samples was measured at 450 nm using an ELISA plate reader (Dynatech MR5000).

[4] = tested on: bovine viral diarrhea virus; assay: Inhibition of bovine viral diarrhea virus in MDBK cells; type: cell-based
From the text: (§1) Bovine viral diarrhea virus is related to HCV and may serve as a surrogate model for human hepatitis C virus (Yanagida K., et al., ibid).

[5] = Cytotoxicity in MDBK cells (IC50 used for SI); type: cell-based; conditions: bovine, MDBK (Madin-Darby bovine kidney) cells, value paired with EC50 to give SI
From the text: as §1

T1 sequence (P06473 32-906): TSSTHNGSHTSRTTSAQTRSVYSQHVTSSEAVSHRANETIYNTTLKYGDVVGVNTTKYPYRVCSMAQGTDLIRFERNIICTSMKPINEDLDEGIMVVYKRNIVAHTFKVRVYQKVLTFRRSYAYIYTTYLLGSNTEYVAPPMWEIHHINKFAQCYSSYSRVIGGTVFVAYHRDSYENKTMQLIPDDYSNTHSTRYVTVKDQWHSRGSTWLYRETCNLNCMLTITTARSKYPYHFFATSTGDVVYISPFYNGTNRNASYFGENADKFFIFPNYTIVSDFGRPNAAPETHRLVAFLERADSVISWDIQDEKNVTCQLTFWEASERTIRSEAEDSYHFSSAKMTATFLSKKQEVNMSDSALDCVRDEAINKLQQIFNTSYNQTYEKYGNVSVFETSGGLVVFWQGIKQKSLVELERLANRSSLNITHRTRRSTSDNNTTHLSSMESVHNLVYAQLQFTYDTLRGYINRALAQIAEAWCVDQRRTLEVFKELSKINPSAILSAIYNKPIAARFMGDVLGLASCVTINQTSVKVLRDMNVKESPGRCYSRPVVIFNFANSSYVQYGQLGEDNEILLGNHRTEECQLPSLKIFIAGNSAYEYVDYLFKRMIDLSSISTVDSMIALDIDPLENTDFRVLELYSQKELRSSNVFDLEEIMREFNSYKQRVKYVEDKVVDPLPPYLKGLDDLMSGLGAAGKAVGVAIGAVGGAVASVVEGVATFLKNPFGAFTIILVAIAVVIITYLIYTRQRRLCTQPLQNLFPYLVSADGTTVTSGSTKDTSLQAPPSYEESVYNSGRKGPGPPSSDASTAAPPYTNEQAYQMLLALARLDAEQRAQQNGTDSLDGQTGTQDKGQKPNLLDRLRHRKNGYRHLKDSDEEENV

Question: With `Cc1ccc2nc(N3CCN(C)CC3)c(C=C3SC(=S)N(Cc4ccccc4)C3=O)c(=O)n2c1` [Compound 5, 4H-Pyrido[1,2-a]pyrimidin-4-one, 3-[(3-phenylmethyl-4-oxo-2-thioxo-5-thiazolidinylidene)methyl]-2-(4-methyl-1-piperazinyl)-7-methyl-] as the compound, how does the “Inhibition (%) Co-incubation” value (heparin) read?
Answer: 66%

Question: And the “Inhibition (%) Pre-Incubation” value (heparin)?
Answer: 68%

Question: With `O=C(CN1C(=O)C(=C2SC(=S)N(CCS(=O)(=O)O)C2=O)c2ccccc21)Nc1cccc(C(F)(F)F)c1` [Compound 11, 5-[1,2-dihydro-2-oxo-1-[2-oxo-2-[[3-(trifluoromethyl)phenyl]amino]ethyl]-3H-indol-3-ylidene]-4-oxo-2-thioxo-3-thiazolidineethanesulfonic acid] as the compound, how does the EC50 [1] read?
Answer: < 0.03 µg/mL

Question: What about the CC50 at 7 days [2] of the same compound?
Answer: > 100 µg/mL

Question: Which results are given for `CCCCN1C(=O)/C(=C/c2c(N3CCN(C)CC3)nc3c(C)cccn3c2=O)SC1=S` [Compound 10, 4H-Pyrido[1,2-a]pyrimidin-4-one, 3-[(3-butyl-4-oxo-2-thioxo-5-thiazol-idinylidene)methyl]-9-methyl-2-(4-methyl-1-piperazinyl)-]?
Answer: Inhibition (%) Co-incubation (heparin): 80%; Inhibition (%) Pre-Incubation (heparin): 73%; EC50 [1]: 3.2 µg/mL (≈ 6.99 µM); CC50 at 7 days [2]: 11.8 µg/mL (≈ 25.8 µM)

Question: For heparin [Soluble heparin], which “Inhibition of CMV envelope glycoprotein B binding to immobilized heparin” value [3] is on record?
Answer: inhibit

Question: For `Cc1cccn2c(=O)c(C=C3SC(=S)N(Cc4ccccc4)C3=O)c(NCCN3CCOCC3)nc12` [Compound 26, 4H-Pyrido[1,2-a]pyrimidin-4-one, 3-[[3-(phenylmethyl)-4-oxo-2-thioxo-5-thiazolidinylidene]methyl]-2-[[2-(4-morpholinyl)ethyl]amino]-9-methyl-], which SI [4] is on record?
Answer: > 17

Question: What about the EC50 ([4]; Bovine viral diarrhea virus isolates and strains) of the same compound?
Answer: 6 µM

Question: And the IC50 [5]?
Answer: > 100 µM

Question: What does the source list for `O=C1C(=Cc2c(NCCCn3ccnc3)nc3ccccn3c2=O)SC(=S)N1Cc1ccccc1` [Compound 25, 4H-Pyrido[1,2-a]pyrimidin-4-one, 3-[(3-phenylmethyl-4-oxo-2-thioxo-5-thiazolidinylidene)methyl]-2-[[3-(1H-imidazol-1-yl)propyl]amino]-]?
Answer: Inhibition (%) Co-incubation (heparin): 67%; Inhibition (%) Pre-Incubation (heparin): 89%

— patent publication US20070179137A1, “Screening of anti-viral drugs and pharmaceuticals composition containing thiazolidinone derivatives” (priority 2004, published 2007)
